Results published in article PMC9226124, “Macrocycle-stabilization of its interaction with 14-3-3 increases plasma membrane localization and activity of CFTR” (Nature Communications, 2022).
Where “and” joins values, the source holds several entries; their conditions need not be identical. Identical values can stand only once.

Tests used:
[1] = biological target: T1, 14-3-3β/CFTRpS753pS768 complex (Homo sapiens, UniProt P13569+P31946); experiment: Dose-response fluorescence polarization (FP) assay, compound titration; type: binding; settings: for Polarization, background subtracted: 14-3-3 10 μM, peptide 100 nM, replicates; for FP signal: With 14-3-3
T1 construct: His6 (cleaved yes); made in house; peptide synthetic
Protocol: The 14-3-3β concentration used for the FP screening assay was 10 μM (dashed line). c HTS FP assay of the Cyclenium library. The samples contain 100 nM of FITC-CFTR_pS753pS768 peptide, 10 μM 14-3-3β, and 50 μM compound. FC-A (100 µM) was added as a positive control and DMSO as the negative control. Hit compounds are defined as a polarization increase which is higher than 20% of the response of FC-A. Red squares are compounds that appeared positive in the negative control without 14-3-3. […] Background polarization was subtracted from all values, n = 3 technical replicates. Compounds selected for further analysis are indicated with an asterisk. e Polarization in the absence of 14-3-3. […] Source data are provided as a Source Data file. […]
(§1) The FITC-labeled peptides were dissolved in FP buffer (10 mM HEPES pH 7.4, 150 mM NaCl, 0.1% Tween20, 1 mg/mL BSA) to a final concentration of 100 nM or 10 nM. For the dose-response assays, a 14-3-3β concentration of 10 μM was used while titrating the compounds in a two-times dilution series and, for the other assays, a dilution series of 14-3-3β was made with constant concentration of compound. The dilution series were made in 384 Corning Black Round Bottom well plates and their polarization was measured with a Tecan Infinite F500 plate reader (ex. = 485 nm, em. = 535 nm). The method of fitting of the curves was: “log(agonist) vs. response – Variable slope (four parameters)” from GraphPad Prism. The equation is Y = Bottom + (Top-Bottom)/(1 + 10^((LogEC50-X)*HillSlope)).

[2] = biological target: T2, FITC-labeled CFTRpS753pS768 peptide (no 14-3-3) (Homo sapiens, UniProt P13569); experiment: Dose-response FP control assay in the absence of 14-3-3; type: binding; settings: for Polarization in the absence of 14-3-3, background subtracted: replicates; for FP signal: No 14-3-3
T2 construct: made in house; host or cells: synthetic peptide
Protocol: The 14-3-3β concentration used for the FP screening assay was 10 μM (dashed line). c HTS FP assay of the Cyclenium library. The samples contain 100 nM of FITC-CFTR_pS753pS768 peptide, 10 μM 14-3-3β, and 50 μM compound. FC-A (100 µM) was added as a positive control and DMSO as the negative control. Hit compounds are defined as a polarization increase which is higher than 20% of the response of FC-A. Red squares are compounds that appeared positive in the negative control without 14-3-3. […] Background polarization was subtracted from all values, n = 3 technical replicates. Compounds selected for further analysis are indicated with an asterisk. e Polarization in the absence of 14-3-3. […] Source data are provided as a Source Data file.
as §1

T2 sequence (P13569 747-774 limits assumed): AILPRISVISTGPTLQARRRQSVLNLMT
T1 sequence (P31946 whole entry): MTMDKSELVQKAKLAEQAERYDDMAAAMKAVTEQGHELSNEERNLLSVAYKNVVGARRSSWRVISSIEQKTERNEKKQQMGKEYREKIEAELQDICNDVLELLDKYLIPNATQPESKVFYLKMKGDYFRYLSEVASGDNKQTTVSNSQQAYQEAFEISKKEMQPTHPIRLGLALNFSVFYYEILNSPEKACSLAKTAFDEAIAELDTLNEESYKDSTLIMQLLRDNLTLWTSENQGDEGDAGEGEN

**Q.** For `N=C(N)NCCCC1NC(=O)C(CCC(N)=O)NC(=O)C(CCCNC(=N)N)NC(=O)C2CCCN2Cc2cccc(c2)-c2ccccc2CNC1=O` (stereo not drawn) [CY002028], which “Polarization, background subtracted” value ([1]; compound 7.8125e-7 M) is on record?
**A.** 0.5667 and 1.267 and 0.8667

**Q.** And the “Polarization, background subtracted” value ([1]; compound 1.5625e-6 M)?
**A.** 0.6667 and -0.1333 and 0.5667

**Q.** And the “Polarization, background subtracted” value ([1]; compound 3.125e-6 M)?
**A.** 1.867 (2×) and 1.167

**Q.** What about the “Polarization, background subtracted” value ([1]; compound 6.25e-6 M) of the same molecule?
**A.** 2.367 and 1.667 and 2.767

**Q.** And the “Polarization, background subtracted” value ([1]; compound 1.25e-5 M)?
**A.** 6.467 and 4.967 and 7.667

**Q.** What about the “Polarization, background subtracted” value ([1]; compound 2.5e-5 M) of the same molecule?
**A.** 12.9667 and 10.8667 and 4.867

**Q.** What about the “Polarization, background subtracted” value ([1]; compound 5e-5 M) of the same molecule?
**A.** 26.7667 and 22.8667 and 21.6667

**Q.** And the “Polarization, background subtracted” value ([1]; compound 0.0001 M)?
**A.** 66.6667 and 58.4667 and 74.5667

**Q.** What about the “Polarization in the absence of 14-3-3, background subtracted” value (“Polarization in the absence” for short) ([2]; compound 7.8125e-7 M) of the same molecule?
**A.** 1.367 and 0.8667 and 0.4667

**Q.** And the “Polarization in the absence” value ([2]; compound 1.5625e-6 M)?
**A.** 0.5667 and -0.1333 and 0.4667

**Q.** What about the “Polarization in the absence” value ([2]; compound 3.125e-6 M) of the same molecule?
**A.** 0.3667 (2×) and 0.6667

**Q.** What about the “Polarization in the absence” value ([2]; compound 6.25e-6 M) of the same molecule?
**A.** 0.2667 and -0.5333 and 0.6667

**Q.** What about the “Polarization in the absence” value ([2]; compound 1.25e-5 M) of the same molecule?
**A.** -1.933 and 1.467 and 1.267

**Q.** What about the “Polarization in the absence” value ([2]; compound 2.5e-5 M) of the same molecule?
**A.** 1.367 (2×) and 1.467

**Q.** What about the “Polarization in the absence” value ([2]; compound 5e-5 M) of the same molecule?
**A.** 3.267 and 3.467 and 4.467

**Q.** And the “Polarization in the absence” value ([2]; compound 0.0001 M)?
**A.** 7.867 and 8.067 and 8.267

**Q.** How did the “Polarization, background subtracted” value ([1]; compound 7.8125e-7 M) turn out when `NCCCC1NCc2ccccc2Sc2ccccc2CNC(=O)C(Cc2c[nH]c3ccccc23)NC(=O)C(Cc2ccccc2)NC1=O` (stereo not drawn) [CY000970] was run?
**A.** 3.967 and 7.467 and 1.967

**Q.** What about the “Polarization, background subtracted” value ([1]; compound 1.5625e-6 M) of the same molecule?
**A.** 3.067 and 3.467 and 2.467

**Q.** And the “Polarization, background subtracted” value ([1]; compound 3.125e-6 M)?
**A.** 6.467 and 6.067 and 3.767

**Q.** What about the “Polarization, background subtracted” value ([1]; compound 6.25e-6 M) of the same molecule?
**A.** 9.367 and 10.5667 and 10.2667

**Q.** What about the “Polarization, background subtracted” value ([1]; compound 1.25e-5 M) of the same molecule?
**A.** 21.1667 and 31.0667 and 29.9667

**Q.** What about the “Polarization, background subtracted” value ([1]; compound 2.5e-5 M) of the same molecule?
**A.** 47.8667 and 51.0667 and 48.4667

**Q.** And the “Polarization, background subtracted” value ([1]; compound 5e-5 M)?
**A.** 75.6667 and 90.6667 and 83.6667

**Q.** And the “Polarization, background subtracted” value ([1]; compound 0.0001 M)?
**A.** 125.667 and 143.267 and 127.367

**Q.** What about the “Polarization in the absence” value ([2]; compound 7.8125e-7 M) of the same molecule?
**A.** 1.267 and 1.067 and 0.9667

**Q.** What about the “Polarization in the absence” value ([2]; compound 1.5625e-6 M) of the same molecule?
**A.** 0.5667 and 0.1667 and -0.03333

**Q.** And the “Polarization in the absence” value ([2]; compound 3.125e-6 M)?
**A.** 1.367 and 2.667 and 1.467

**Q.** And the “Polarization in the absence” value ([2]; compound 6.25e-6 M)?
**A.** 1.367 and 2.167 and 2.967

**Q.** And the “Polarization in the absence” value ([2]; compound 1.25e-5 M)?
**A.** 6.867 (2×) and 8.667

**Q.** And the “Polarization in the absence” value ([2]; compound 2.5e-5 M)?
**A.** 12.7667 and 12.6667 and 13.5667

**Q.** What about the “Polarization in the absence” value ([2]; compound 5e-5 M) of the same molecule?
**A.** 29.6667 and 26.2667 and 32.2667

**Q.** What about the “Polarization in the absence” value ([2]; compound 0.0001 M) of the same molecule?
**A.** 49.4667 and 44.0667 and 55.9667

**Q.** What does the source list for `NCCCC1NC(=O)C(Cc2ccc(-c3ccccc3)cc2)NCc2ccccc2Sc2ccccc2CNC1=O` (stereo not drawn) [CY001110]?
**A.** Polarization, background subtracted ([1]; compound 7.8125e-7 M): -1.033 and -2.233 and -1.933; Polarization, background subtracted ([1]; compound 1.5625e-6 M): -4.033 and -5.333 and -2.333; Polarization, background subtracted ([1]; compound 3.125e-6 M): -5.033 (2×) and -4.933; Polarization, background subtracted ([1]; compound 6.25e-6 M): -4.133 and -2.733 and -3.633; Polarization, background subtracted ([1]; compound 1.25e-5 M): 1.867 and 3.867 and 0.9667; Polarization, background subtracted ([1]; compound 2.5e-5 M): 13.4667 and 18.8667 and 13.1667; Polarization, background subtracted ([1]; compound 5e-5 M): 40.8667 and 54.6667 and 41.6667; Polarization, background subtracted ([1]; compound 0.0001 M): 97.2667 and 108.167 and 99.8667; Polarization in the absence of 14-3-3, background subtracted ([2]; compound 7.8125e-7 M): 0.06667 and 0.2667 and -0.03333; Polarization in the absence of 14-3-3, background subtracted ([2]; compound 1.5625e-6 M): -0.3333 and -0.6333 (2×); Polarization in the absence of 14-3-3, background subtracted ([2]; compound 3.125e-6 M): -0.6333 and 0.1667 and -0.7333; Polarization in the absence of 14-3-3, background subtracted ([2]; compound 6.25e-6 M): -1.333 (2×) and -0.9333; Polarization in the absence of 14-3-3, background subtracted ([2]; compound 1.25e-5 M): 0.06667 and -0.2333 and 0.1667; Polarization in the absence of 14-3-3, background subtracted ([2]; compound 2.5e-5 M): -0.8333 and -1.033 and -0.2333; Polarization in the absence of 14-3-3, background subtracted ([2]; compound 5e-5 M): -0.3333 and 0.2667 (2×); Polarization in the absence of 14-3-3, background subtracted ([2]; compound 0.0001 M): 0.2667 and 1.467 and 3.067

**Q.** Which results are given for `N=C(N)NCCCC1NC(=O)C(Cc2ccccc2)NC(=O)C2(CCC(c3ccccc3)CC2)NCc2cccc(c2)-c2ccccc2CNC(=O)C(Cc2c[nH]c3ccccc23)NC1=O` (stereo not drawn) [CY007183]?
**A.** EC50 ([1]; 14-3-3β 10 μM, labeled CFTRpS753pS768 100 nM): False positive; FP signal ([1]; compound 338.6 pM): 2; FP signal ([1]; compound 677.1 pM): 4; FP signal ([1]; compound 1.35422e-9 M): 3; FP signal ([1]; compound 2.70843e-9 M): 4; FP signal ([1]; compound 5.41687e-9 M): 4; FP signal ([1]; compound 1.08337e-8 M): 2; FP signal ([1]; compound 2.16675e-8 M): 4; FP signal ([1]; compound 4.3335e-8 M): 3; FP signal ([1]; compound 8.66699e-8 M): 2; FP signal ([1]; compound 1.7334e-7 M): 4; FP signal ([1]; compound 3.4668e-7 M): 4; FP signal ([1]; compound 6.93359e-7 M): 5; FP signal ([1]; compound 1.38672e-6 M): 7; FP signal ([1]; compound 2.77344e-6 M): 8; FP signal ([1]; compound 5.54688e-6 M): 14; FP signal ([1]; compound 1.10938e-5 M): 24; FP signal ([1]; compound 2.21875e-5 M): 49; FP signal ([1]; compound 4.4375e-5 M): 80; FP signal ([1]; compound 8.875e-5 M): 145; FP signal ([1]; compound 0.0001775 M): 211; FP signal ([1]; compound 0.000355 M): 249; FP signal ([1]; compound 0.00071 M): 275; FP signal ([2]; compound 338.6 pM): 2; FP signal ([2]; compound 677.1 pM): 4; FP signal ([2]; compound 1.35422e-9 M): 3; FP signal ([2]; compound 2.70843e-9 M): 4; FP signal ([2]; compound 5.41687e-9 M): 4; FP signal ([2]; compound 1.08337e-8 M): 2; FP signal ([2]; compound 2.16675e-8 M): 4; FP signal ([2]; compound 4.3335e-8 M): 3; FP signal ([2]; compound 8.66699e-8 M): 2; FP signal ([2]; compound 1.7334e-7 M): 4; FP signal ([2]; compound 3.4668e-7 M): 4; FP signal ([2]; compound 6.93359e-7 M): 5; FP signal ([2]; compound 1.38672e-6 M): 7; FP signal ([2]; compound 2.77344e-6 M): 8; FP signal ([2]; compound 5.54688e-6 M): 14; FP signal ([2]; compound 1.10938e-5 M): 24; FP signal ([2]; compound 2.21875e-5 M): 49; FP signal ([2]; compound 4.4375e-5 M): 80; FP signal ([2]; compound 8.875e-5 M): 145; FP signal ([2]; compound 0.0001775 M): 211; FP signal ([2]; compound 0.000355 M): 249; FP signal ([2]; compound 0.00071 M): 275
